# Measurements from PubChem BioAssay (NCI).
#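 The compound was tested at five concentrations on cells cultured in 96-well plates, with a 48-hour exposure period. TGI: total growth inhibition.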
# Assays:
# Assay in all cases: inhibition of tumour cell growth, NCI panel, 48 h
# HOP-92 NSCLC = tested on: HOP-92 NSCLC
# DU-145 prostate = tested on: DU-145 prostate
# HT29 colon = tested on: HT29 colon
# SK-MEL-28 melanoma = tested on: SK-MEL-28 melanoma
# HCC-2998 colon = tested on: HCC-2998 colon
# CCRF-CEM leukemia = tested on: CCRF-CEM leukemia
# MCF7 breast = tested on: MCF7 breast
# 786-0 renal = tested on: 786-0 renal
# SNB-75 CNS = tested on: SNB-75 CNS
# OVCAR-3 ovarian = tested on: OVCAR-3 ovarian
Structure (SMILES),TGI (HOP-92 NSCLC) [µM],TGI (DU-145 prostate) [µM],TGI (HT29 colon) [µM],TGI (SK-MEL-28 melanoma) [µM],TGI (HCC-2998 colon) [µM],TGI (CCRF-CEM leukemia) [µM],TGI (MCF7 breast) [µM],TGI (786-0 renal) [µM],TGI (SNB-75 CNS) [µM],TGI (OVCAR-3 ovarian) [µM]
NC(=O)CCC(NC(=O)c1c2ccccc2nc2ccccc12)C(=O)O (stereo not given),> 100,> 100,> 100,> 100,> 100,> 100,> 100,> 100,> 100,> 100
O=CN1CCC23CC(O)CCC2C1Cc1cc(Oc2nnnn2-c2ccccc2)cc(O)c13 (stereo not given),> 100,> 100,> 100,> 100,> 100,> 100,> 100,> 100,> 100,> 100
C=CC1(c2ccc3ccccc3c2)OCC(CC)O1 (stereo not given),75.2,> 100,91.2,> 100,> 100,73.7,> 100,> 100,> 100,> 100
O=[N+]([O-])/C(Cl)=C/C(=C1/Nc2ccccc2O1)[N+](=O)[O-],63.7,41.6,> 100,35.9,28,53.6,> 100,> 100,35.5,57.5
CC(C)Cn1cnc2c(Cl)nc3ccccc3c21,> 100,> 100,> 100,> 100,> 100,> 100,> 100,> 100,88,> 100
O=C1/C(=C/c2ccc(O)c(O)c2)CC/C1=C\c1ccc(O)c(O)c1,76.1,> 100,> 100,> 100,> 100,9.81,22.3,38.2,> 80.1,32
O=c1[nH]nc(Cc2ccccc2)n1/N=C/c1ccc([N+](=O)[O-])cc1,> 100,> 100,> 100,> 100,> 100,> 100,> 100,> 100,> 100,> 100
CC(=O)Nc1cc2nc3n(c2cc1C)CCC3OC(C)=O (stereo not given),> 100,> 100,> 100,> 100,> 100,> 100,> 100,> 100,> 100,> 100
